Measurements as given in publication PMC5618429, “Kempopeptin C, a Novel Marine-Derived Serine Protease Inhibitor Targeting Invasive Breast Cancer” (Marine Drugs, 2017).

Tests used:
[1] = tested on: CDCP1 cleavage in MDA-MB-231 cells; experiment: Cleavage of CDCP1 in MDA-MB-231 cells (Western blot); assay type: cell-based
Procedure: The experiment was performed by treating MDA-MB-231 cells with different concentrations of either kempopeptin B (2) or C (3) for 72 h (Figure 6A). Dexamethasone (Dex) 100 nM was used as a positive control.
Figure 6 The effect of kempopeptins B and C (2 and 3) on CDCP1 cleavage in MDA-MB-231. (A) MDA-MB-231 cells were treated for 72 h with different concentrations of the test compounds. Following 72 h, the lysates were collected and analyzed by Western blot. (B) MDA-MB-231 cells were treated at different time points with 100 µM of kempopeptin C (3). Following 6 h, 12 h and 24 h, the lysates were collected and analyzed by Western blot. Dexamethasone (Dex) was used as a positive control. (C) MDA-MB-231 cells treated for 24 h with different concentrations of 3 in the presence of 10 nM recombinant human matriptase. Cell lysates were harvested and analyzed by Western blot. (D) Densitometric analysis of the full-length, LMW of CDCP1 and actin bands in (C).
MDA-MB-231 cells (150,000 cells/well) were seeded in 12-well plates. After 24 h, the media were replaced, and cells were treated with different concentrations of inhibitors (2 or 3; prepared in DMSO), the solvent control or the positive control dexamethasone. Whole-cell protein lysates were collected after 6, 12, 24 and 72 h using PhosphoSafe lysis buffer (Novagen, Madison, USA) and the protein concentration measured using the BCA Protein Assay kit (Pierce; 23227; Thermofisher Scientific; Waltham, MA, USA). Twenty micrograms of protein were separated by SDS-PAGE, transferred to polyvinylidene difluoride (PVDF) membranes, probed with CDCP1 antibody (Cell Signaling; 4115S) and detected with SuperSignal West Femto Maximum Sensitivity Substrate (Pierce).

[2] = biological target: T1, recombinant human matriptase (Homo sapiens, UniProt Q9Y5Y6); experiment: In vitro cleavage of CDCP1 by matriptase (SDS-PAGE, silver stain); assay type: biochemical; details: enzyme to substrate ratio 1:5, pH 9.0, 37 °C, 30 min and 2 h, 10‒0.01 µM inhibitor, qualitative
T1 construct: purchased R&D Systems 3946-SE-010
T1 sequence (Q9Y5Y6 615-855 limits assumed): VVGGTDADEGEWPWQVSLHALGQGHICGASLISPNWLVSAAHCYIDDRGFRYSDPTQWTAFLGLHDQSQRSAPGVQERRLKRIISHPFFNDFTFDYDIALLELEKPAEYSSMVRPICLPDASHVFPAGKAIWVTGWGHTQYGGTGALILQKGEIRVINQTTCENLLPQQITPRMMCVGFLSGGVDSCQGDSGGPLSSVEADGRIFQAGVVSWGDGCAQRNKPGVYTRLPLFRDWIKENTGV
Excerpt: Due to the significance of these proteases in cancer progression and metastasis, as well as their functional redundancy with respect to targeting overlapping substrates, we focused our studies on examining the effect of kempopeptin C (3) on the downstream cellular substrates of matriptase. Due to the limited amount of 3, our study aimed to provide a qualitative preliminary characterization of CDCP1 and Dsg-2 cleavage inhibition by kempopeptin C (3). […] CDCP1 is considered a potential prognostic marker with expression levels found to correlate with the recurrence and survival rate of cancer patients. […] The exact mechanism regulating the generation of the LMW fragment is poorly understood; however, there is evidence for the involvement of serine protease proteolytic activity. Several studies provided evidence for serine protease-mediated (trypsin, plasmin and matriptase) cleavage of CDCP1 [15, 38]. Therefore, we examined the ability of recombinant human matriptase to cleave CDCP1 in vitro and assessed the effect of kempopeptin C (3) on inhibiting/reducing this cleavage. Recombinant human matriptase was incubated with CDCP1 (final molar ratio 1:5) at different time points (30 min and 2 h) at 37 °C in the presence of varying concentrations of kempopeptin C (3) or solvent control (Figure 4A,B). […] LMW fragments were more readily detected at longer incubation times (2 h). […]

[3] = Cell viability assay (MTT); assay type: cell-based; details: human, MDA-MB-231 breast cancer cells; MDA-MB-231, 48 h, all concentrations tested (32 µM to 320 pM)
Procedure: MDA-MB-231 cells were seeded in 96-well plates (10,000 cells/well). After 24 h of incubation, the cells were treated with different concentrations of kempopeptins B or C (2 or 3) or the solvent control (DMSO). Following 48 h of incubation, cell viability was measured using 3-(4,5-dimethylthiazol-2-yl)-2,5-diphenyltetrazolium bromide according to the manufacturer's instructions (Promega, Madison, WI, USA).
Effect of kempopeptins on the viability of MDA-MB-231 cells
Kempopeptin C Kempopeptin B
Figure S1. Effect of kempopeptins B and C (2) and (3) on the viability of MDA -MB-231 breast cancer cells.

CCCC(=O)NC(C(=O)NC1C(=O)NC(CCCCN)C(=O)NC2CCC(O)N(C2=O)C(C(C)CC)C(=O)N(C)C(Cc2ccc(OC)c(Cl)c2)C(=O)NC(C(C)C)C(=O)OC1C)C(C)C (centres unmarked) [Kempopeptin C, kempopeptin C]
Inhibition of CDCP1 cleavage in MDA-MB-231 ([1]; 100 µM, 6, 12 and 24 h): no inhibition of CDCP1 cleavage was detected
Inhibition of CDCP1 cleavage in MDA-MB-231 ([1]; 72 h, different concentrations): No inhibition of CDCP1 cleavage was observed
Inhibition of in vitro cleavage of CDCP1 by matriptase [2]: inhibit the cleavage
Inhibition of in vitro cleavage of CDCP1 by matriptase ([2]; listed as Kempopeptin C (3)): able to only minimize the cleavage at 10 µM
viability at 48 h [3]: > 90%
